Test results reported in US11247994B2, “6-dithio-substituted-2′-deoxyguanosine compound, preparation method thereof and use thereof” (ZHEJIANG UNIVERSITY, priority 2018, dated 2022).
Read-outs that look alike come from different tables or passages of the source.

Legend:
[1] = system: human colon cancer cells HCT116; experiment: MTT assay, tumor cell growth inhibition, HCT116; format: cell-based; details: HCT-116, 48 hours
Text: (§1) MTT Assay—Inhibitory Effect of 6-dithio-substituted-2′-deoxyguanosine Derivatives on Tumor Cell Growth
(§2) We measured the tumor cell growth inhibitory activity of candidate compounds by MTT assay. Human tumor cells in logarithmic growth phase were digested with 0.25% pancreatin for a certain time, centrifuged, re-suspended and counted with a blood cell counting plate to prepare a cell suspension, and the cell suspension was adjusted to 1.0×10^4-1×10^5 cells/mL. The cell suspension was inoculated into a 96-well culture plate, 100 μL per well, and cultured in an incubator with saturated humidity, 37° C. and 5% CO2 for 24 hours until the cells completely adhered to the wall. The test compound was diluted to the required concentration with a complete medium, the complete medium of the 96-well culture plate inoculated with human tumor cells was sucked out, a medicament-containing medium was added, 100 μL per well, the final concentration of DMSO was less than 0.1%, and the culture plate was put in an incubator for 48 hours. 10 μl of MTT was added to each well of the 96-well plate, and the culture was continued for 4 h. The culture was stopped and the culture solution in the well was carefully sucked off. 150 μL DMSO was added to each well, and shaken at a low speed for 10 min on a shaking table, so that the crystal was fully dissolved. The absorbance of each well was measured at OD 570 nm of an enzyme-linked immunosorbent assay instrument. At the same time, zeroing wells (the culture medium, MTT, dimethyl sulfoxide) and control wells (cells, a drug dissolution medium with the same concentration, a culture solution, MTT, dimethyl sulfoxide) were set up, and the cell growth inhibitory activity was calculated with the corresponding solvents as the control. 3-6 multiple wells in each group were set up with repetition of several times. Cell viability of control=(Adrug group−Azeroing well)/(Acontrol well−Azeroing well)*100%. Drawing was drawn, the data were fitted into a concentration response curve with a variable slope, and IC50 value was calculated from the curve.

[2] = system: human breast cancer cells Bcap37; experiment: MTT assay, tumor cell growth inhibition, Bcap37; format: cell-based; details: 48 hours
Text: as §1, §2

[3] = system: human leukemia cells K562; experiment: MTT assay, tumor cell growth inhibition, K562; format: cell-based; details: 48 hours
Text: as §1, §2

[4] = system: human breast cancer cells MCF7; experiment: MTT assay, tumor cell growth inhibition, MCF7; format: cell-based; details: 48 hours
Text: as §1, §2

[5] = system: human colon cancer cells HT29; experiment: MTT assay, tumor cell growth inhibition, HT29; format: cell-based; details: HT-29, 48 hours
Text: as §1, §2

[6] = target: T1, TrxR/Trx-1 (Homo sapiens, UniProt P10599); experiment: Ellman test, inhibition of TrxR/Trx-1 activity; format: biochemical
T1 sequence (P10599 2-105 limits assumed): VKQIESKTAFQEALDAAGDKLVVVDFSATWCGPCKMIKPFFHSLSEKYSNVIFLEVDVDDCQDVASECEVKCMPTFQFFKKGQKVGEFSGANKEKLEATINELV
Text: Ellman Test—Inhibitory Effect of 6-dithio-substituted-2′-deoxyguanosine Derivative Analogues on TrxR/Trx-1 Activity
A TrxR/TR experiment based on the Ellman reaction was used to determine the inhibitory activity of candidate compounds. Ellman reaction is that 5,5′-dithiobis (2-nitrobenzoic acid) (DTNB) reacts with sulfhydryl (—SH) to form a yellow substance with absorption at 412 nm. The increase of absorption can be equivalent to the decrease of NADPH mediated by TrxR, thus further judging the activity of TrxR/Trx-1. All experiments were carried out on 96-well plates. Before the start of the enzyme reaction, five groups of corresponding test compound stock solutions with different concentrations were prepared. In the TrxR/Trx-1 reaction, a total volume per well was 60 μL, including 100 mM HEPES, 5 mM EDTA (HE buffer, pH 7.5), 1 mM NADPH, 1.0 μM TrxR, 0.8 μM Trx-1, 2.5 mg/mL bovine insulin and the required concentration of compounds to be tested. No compound to be tested was added to the control group. No compound to be tested, TrxR and Trx-1 were added in the blank group. The plate was shaken on an oscillator for 30 seconds to fully mix the reactants. After incubation at 37° C. for 30 min, 100 μL of the prepared mixture containing 6 M guanidine hydrochloride, 50 mm Tris and 10 mm DTNB was added to terminate the reaction. After 15 minutes of incubation, the absorbance was measured at 412 nm. Finally, TrxR/Trx-1 activity %=(Atest−Akb)/(Acontrol−Akb), that is, the relative percentage of TrxR/Trx-1 activity was the activity inhibited by adding 2′-deoxyguanosine derivatives relative to the activity without 2′-deoxyguanosine derivatives. The data were fitted into a concentration response curve with a variable slope, and the IC50 value was calculated from the curve.

[7] = system: human colon cancer cells SW620; experiment: MTT assay, tumor cell growth inhibition, SW620; format: cell-based; details: SW-620, 48 hours
Text: as §1, §2

[8] = system: NCM460; experiment: MTT assay, cell growth inhibition, NCM460; format: cell-based; details: Homo sapiens, 48 hours, read-out: Tumor cell growth inhibition IC50, NCM460
Text: as §1, §2

[9] = system: human melanoma cells A375; experiment: MTT assay, tumor cell growth inhibition, A375; format: cell-based; details: A-375, 48 hours
Text: as §1, §2

[10] = system: human colon cancer cell line HCT116 subcutaneous transplanted tumor; experiment: Tumor-bearing test in nude mice, HCT116 subcutaneous transplanted tumor (tumor volume, TUNEL); format: in vivo; details: HCT116 model; for Extent of apoptosis in tumor tissue (TUNEL staining, rank order): frozen tumor sections, DAPI and TUNEL, G group = blank; for Inhibitory effect on the growth of subcutaneous transplanted tumor tissue in nude mice (rank order, from slope of tumor volume): compound A 2 mg/kg first 8 times, 10 mg/kg last 4 times, others equimolar, KB = blank
Text: Tumor-Bearing Test in Nude Mice—Inhibitory Effect of 6-Dithio-Substituted-2′-Deoxyguanosine Derivatives on the Growth of Subcutaneous Transplanted Tumor Tissue in Nude Mice
1) Tumor-Bearing Mouse Model of Human Colon Cancer Cell Line HCT116
(§3) We took human colon cancer cell line HCT116 as the research object, and established a subcutaneous transplanted tumor model of human colon cancer in 32 immunodeficient nude mice. The 24th generation HCT116 cells in logarithmic growth phase were digested with pancreatin to prepare a single-cell suspension, and 1×10^7 cells were inoculated subcutaneously in the right armpit of male nude mice about 5 weeks old. After inoculation, cyclophosphamide (100 mg/kg) was injected intraperitoneally for two consecutive days. […] On the 20th day after colon cancer cell HCT116 was implanted subcutaneously, nude mice were divided into 7 groups by a random number table method, including a test drug group, a positive control group and a blank control group. Specifically, group A: the compound A was administrated; Group B: the compound B was administrated; Group C: the compound C was administrated; Group D: the compound D was administrated; Group E: the compound 6-thio-DG was administrated; Group F: the compound PX-12 was administrated; Group G: blank group, without administration of any compound. Except group C with 3 rats and group G with 4 rats, all other 5 groups had 5 rats, they mice were labeled and injected by tail vein once every two days for 24 days, 12 times, with the dose of compound A being 2 mg/kg for the first 8 times and 10 mg/kg for the last 4 times, and the dosages of other drugs being the same molar weights. The tumor volume was calculated by taking the length of the tumor as the longest diameter and the width as the corresponding vertical diameter, and the tumor volume V=(length×width^2) mm^3/2. 48 hours after the last treatment, blood was taken from the eyes, and then the animals were killed. Blood was centrifuged to get the supernatant, and then blood biochemical analysis was performed. Paraffin embedded sections of fixed tissues were stained with HE. The tumor mass in a frozen tissue was sectioned in a frozen state, and then stained by DAPI and TUNEL to judge the apoptosis of the tumor tissue in nude mice.

[11] = system: human liver cancer cells HepG2; experiment: MTT assay, tumor cell growth inhibition, HepG2; format: cell-based; details: 48 hours
Text: as §1, §2

[12] = system: human non-small cell lung cancer A549; experiment: MTT assay, tumor cell growth inhibition, A549; format: cell-based; details: 48 hours
Text: as §1, §2

[13] = Blood biochemical analysis and HE staining of tissues in HCT116 tumor-bearing nude mice; format: in vivo; details: tail vein once every two days, 12 times, blood 48 hours after the last treatment
Procedure: as §3

[14] = Ellman reaction, 37° C. 30 min, absorbance 412 nm, read-out: IC50, inhibition of TrxR/Trx-1 activity
[15] = tail vein once every two days for 24 days

Structure (SMILES)	IC50 [1] [µM]	IC50 [2] [µM]	IC50 [3] [µM]	IC50 [4] [µM]	IC50 [5] [µM]	IC50 [6, 14] [µM]	IC50 [7] [µM]	IC50 [8] [µM]	IC50 [9] [µM]	Extent of apoptosis in tumor tissue (TUNEL staining, rank order) [10]	Inhibitory effect on the growth of subcutaneous transplanted tumor tissue in nude mice (rank order, from slope of tumor volume) [10, 15]	IC50 [11] [µM]	IC50 [12] [µM]	Alanine aminotransferase [13] [U/L]	Albumin [13] [g/L]	Alkaline phosphatase [13] [U/L]	Aspartate aminotransferase [13] [U/L]	BUN [13] [mmol/L]	Chloride ion [13] [mmol/L]	Creatine kinase [13] [U/L]	further results
Nc1nc(Cl)nc2c1ncn2[C@H]1C[C@H](O)[C@@H](CO)O1 [Cladribine, reference compound]	28.4	> 100	7.86	> 100	9.44	> 100	> 100	> 1000	–	–	–	–	–	–	–	–	–	–	–	–	–
CC(C)(C)SSc1nc(N)nc2c1ncn2C1C[C@H](O)[C@@H](CO)O1 (stereo partly shown) [Compound C, 6-(tert-butyldithio)-2′-deoxyguanosine]	21.8	35.1	28.7	–	7.37	47.7	–	> 1000	3.06	D group>A group≈B group≈E group (6-thio-dG group)>C group>F group (PX-12 group)>G group (KB group)	D>B≈A≈6-thio-dG>PX-12>C>KB	10 to 50	35.8	25.5	27.9	33.7	128.3	9.00	120.5	980.7	Creatinine [13]: 6.67 µmol/L; Glucose [13]: 2.99 mmol/L; Potassium ion [13]: 6.17 mmol/L; Sodium ion [13]: 159.0 mmol/L; Total bilirubin [13]: 0.80 µmol/L; Total cholesterol [13]: 2.65 mmol/L; Total protein [13]: 51.6 g/L; Triglyceride [13]: 1.15 mmol/L
CCC(C)SSc1ncc[nH]1 (stereo not shown) [PX-12, 1-methylpropyl-2-imidazolyl disulfide, reference compound]	34.5	> 100	21.7	> 100	3.37	2.55	1.68	> 1000	2.98	D group>A group≈B group≈E group (6-thio-dG group)>C group>F group (PX-12 group)>G group (KB group)	D>B≈A≈6-thio-dG>PX-12>C>KB	10 to 50	7.43	30.8	33.0	44.2	169.0	8.10	109.9	1434	Creatinine [13]: 3.20 µmol/L; Glucose [13]: 1.47 mmol/L; Potassium ion [13]: 7.64 mmol/L; Sodium ion [13]: 155.8 mmol/L; Total bilirubin [13]: -0.90 µmol/L; Total cholesterol [13]: 2.53 mmol/L; Total protein [13]: 56.9 g/L; Triglyceride [13]: 1.18 mmol/L
Nc1nc(SSCc2ccc(F)cc2)c2ncn(C3C[C@H](O)[C@@H](CO)O3)c2n1 (stereo partly shown) [B, 6-(p-fluorobenzyldithio)-2′-deoxyguanosine]	2.66	21	10.1	15.6	3.02	–	1.71	> 1000	0.52	D group>A group≈B group≈E group (6-thio-dG group)>C group>F group (PX-12 group)>G group (KB group)	D>B≈A≈6-thio-dG>PX-12>C>KB	< 10	13.5	105.9	26.3	31.0	254.4	14.8	124.0	2169	Ability to inhibit the growth of transplanted tumor tissue compared with positive controls ([10]; tail vein once every two days for 24 days, equimolar doses): close to that of the positive control 6-thio-dG and stronger than that of the positive control PX-12; IC50 ([6]; read-out: TrxR/Trx-1 IC50): 9.78 µM; Creatinine [13]: 8.67 µmol/L; Glucose [13]: 2.29 mmol/L; Potassium ion [13]: 6.26 mmol/L; Sodium ion [13]: 158.0 mmol/L; Total bilirubin [13]: 0.90 µmol/L; Total cholesterol [13]: 2.76 mmol/L; Total protein [13]: 50.7 g/L; Triglyceride [13]: 0.52 mmol/L
